System: 772245-204-R-J1-PDC complex spheroid growth
Test: Anticancer human tumor 772245-204-R-J1-PDC patient-derived rhabdomyosarcoma cell line growth inhibition [Asc]
Settings: for IC50: curve of first compound; for viability, T/C: stronger effect = lower value
Method in brief: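 Tumor cells were grown as complex spheroids with human endothelial cells (HUVEC) and human mesenchymal stem cells as stroma. Agents were tested alone and in combination, in half-log steps down from the clinical Cmax, or from 10 microM where Cmax was unknown.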
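Further: compound exposure lasted seven days.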
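Wherever viability, T/C is given: 100% = DMSO vehicle control viability.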

CNC(C)C(=O)NC1CN(S(=O)(=O)c2cccc(S(=O)(=O)N3CCC4CCC(C(=O)NC(c5ccccc5)c5ccccc5)N4C(=O)C(NC(=O)C(C)NC)C3)c2)CCC2CCC(C(=O)NC(c3ccccc3)c3ccccc3)N2C1=O (stereo not given) + Cc1c(S(C)(=O)=O)c(-c2cc(F)cc(N3CCN(c4ccc(NS(=O)(=O)c5ccc(NC(CCN6CCC(C(=O)OCCCP(=O)(O)O)CC6)CSc6ccccc6)c(S(=O)(=O)C(F)(F)F)c5)cc4)CC3)c2)c(-c2ccc(Cl)cc2)n1C(C)C
IC50 (second compound 0.1 µM): > 1000 nM
IC50 (second compound 0.316 µM): 72 nM
IC50 (second compound 1 µM): < 3.16 nM
IC50 (second compound 3.16 µM): < 3.16 nM
IC50 (second compound 10 µM): < 3.16 nM
viability, T/C (second compound 0.1 µM, first compound 0.00316 µM): 79.9%
viability, T/C (second compound 0.1 µM, first compound 0.01 µM): 66.3%
viability, T/C (second compound 0.1 µM, first compound 0.0316 µM): 72.7%
viability, T/C (second compound 0.1 µM, first compound 0.1 µM): 64.8%
viability, T/C (second compound 0.1 µM, first compound 0.316 µM): 63.5%
viability, T/C (second compound 0.1 µM, first compound 1 µM): 63%
viability, T/C (second compound 0.316 µM, first compound 0.00316 µM): 56.1%
viability, T/C (second compound 0.316 µM, first compound 0.01 µM): 56.5%
viability, T/C (second compound 0.316 µM, first compound 0.0316 µM): 55%
viability, T/C (second compound 0.316 µM, first compound 0.1 µM): 45.8%
viability, T/C (second compound 0.316 µM, first compound 0.316 µM): 45.2%
viability, T/C (second compound 0.316 µM, first compound 1 µM): 44.5%
viability, T/C (second compound 1 µM, first compound 0.00316 µM): 43%
viability, T/C (second compound 1 µM, first compound 0.01 µM): 53.5%
viability, T/C (second compound 1 µM, first compound 0.0316 µM): 37.9%
viability, T/C (second compound 1 µM, first compound 0.1 µM): 37.1%
viability, T/C (second compound 1 µM, first compound 0.316 µM): 35.2%
viability, T/C (second compound 1 µM, first compound 1 µM): 39.1%
viability, T/C (second compound 3.16 µM, first compound 0.00316 µM): 31.4%
viability, T/C (second compound 3.16 µM, first compound 0.01 µM): 32.8%
viability, T/C (second compound 3.16 µM, first compound 0.0316 µM): 31.6%
viability, T/C (second compound 3.16 µM, first compound 0.1 µM): 29.5%
viability, T/C (second compound 3.16 µM, first compound 0.316 µM): 29.8%
viability, T/C (second compound 3.16 µM, first compound 1 µM): 25%
viability, T/C (second compound 10 µM, first compound 0.00316 µM): 32.2%
viability, T/C (second compound 10 µM, first compound 0.01 µM): 41.5%
viability, T/C (second compound 10 µM, first compound 0.0316 µM): 31.4%
viability, T/C (second compound 10 µM, first compound 0.1 µM): 25.2%
viability, T/C (second compound 10 µM, first compound 0.316 µM): 23.7%
viability, T/C (second compound 10 µM, first compound 1 µM): 22.3%

Cc1nc(N2CCC3(CC2)COC(C)C3N)c(CO)nc1Sc1ccnc(N)c1Cl (stereo not given) + Cc1c(S(C)(=O)=O)c(-c2cc(F)cc(N3CCN(c4ccc(NS(=O)(=O)c5ccc(NC(CCN6CCC(C(=O)OCCCP(=O)(O)O)CC6)CSc6ccccc6)c(S(=O)(=O)C(F)(F)F)c5)cc4)CC3)c2)c(-c2ccc(Cl)cc2)n1C(C)C
IC50 (second compound 0.1 µM): 2230 nM
IC50 (second compound 0.316 µM): 644 nM
IC50 (second compound 1 µM): 369 nM
IC50 (second compound 3.16 µM): 86.2 nM
IC50 (second compound 10 µM): 444 nM
viability, T/C (second compound 0.1 µM, first compound 0.00949 µM): 90.3%
viability, T/C (second compound 0.1 µM, first compound 0.03 µM): 90.2%
viability, T/C (second compound 0.1 µM, first compound 0.0949 µM): 85%
viability, T/C (second compound 0.1 µM, first compound 0.3 µM): 71%
viability, T/C (second compound 0.1 µM, first compound 0.949 µM): 63.7%
viability, T/C (second compound 0.1 µM, first compound 3 µM): 45.4%
viability, T/C (second compound 0.316 µM, first compound 0.00949 µM): 72.6%
viability, T/C (second compound 0.316 µM, first compound 0.03 µM): 76.3%
viability, T/C (second compound 0.316 µM, first compound 0.0949 µM): 70.9%
viability, T/C (second compound 0.316 µM, first compound 0.3 µM): 57%
viability, T/C (second compound 0.316 µM, first compound 0.949 µM): 46.8%
viability, T/C (second compound 0.316 µM, first compound 3 µM): 31.2%
viability, T/C (second compound 1 µM, first compound 0.00949 µM): 47.4%
viability, T/C (second compound 1 µM, first compound 0.03 µM): 63.7%
viability, T/C (second compound 1 µM, first compound 0.0949 µM): 68.6%
viability, T/C (second compound 1 µM, first compound 0.3 µM): 47.9%
viability, T/C (second compound 1 µM, first compound 0.949 µM): 38.3%
viability, T/C (second compound 1 µM, first compound 3 µM): 20.3%
viability, T/C (second compound 3.16 µM, first compound 0.00949 µM): 60.9%
viability, T/C (second compound 3.16 µM, first compound 0.03 µM): 49.7%
viability, T/C (second compound 3.16 µM, first compound 0.0949 µM): 54.9%
viability, T/C (second compound 3.16 µM, first compound 0.3 µM): 37.9%
viability, T/C (second compound 3.16 µM, first compound 0.949 µM): 32.4%
viability, T/C (second compound 3.16 µM, first compound 3 µM): 14.5%
viability, T/C (second compound 10 µM, first compound 0.00949 µM): 52.1%
viability, T/C (second compound 10 µM, first compound 0.03 µM): 61.2%
viability, T/C (second compound 10 µM, first compound 0.0949 µM): 60.9%
viability, T/C (second compound 10 µM, first compound 0.3 µM): 55.4%
viability, T/C (second compound 10 µM, first compound 0.949 µM): 38.7%
viability, T/C (second compound 10 µM, first compound 3 µM): 16.4%

From PubChem BioAssay AID1963433 (Molecular Pharmacology Branch, DTP, NCI, 2024)
